The structures appear in SMILES notation.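 Grown in 96-well plates, cells were treated for 48 hours with each compound at five concentrations. Insufficient inhibition: endpoint recorded as highest concentration tested. GI50 marks 50% less growth.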 Activity calls are given as the source filed them. Rule as the data show it: active = GI50 up to about 1.1 µM and inactive = higher.

Some test systems named below: ACHN; HCT-15; SK-OV-3; MDA-N; NCI-H23; Malme-3M; 786-0; TK-10; SK-MEL-2; OVCAR-5; SK-MEL-5; IGROV-1; OVCAR-4; Hs-578T; OVCAR-3; UACC-257; COLO 205; MCF7; MDA-MB-435; U-251.
Common to all, as to experiment: NCI-60 cell line screen, 48 h

With `C[Si](C)(C)CCOCN(C(=O)C1=CCC2(CC1)OCCO2)c1ccccc1I`, the GI50 is 22.6 µM (inactive) in the assay with ACHN; 17.8 µM in the assay with HCT-15; 16.8 µM (inactive) in the assay with SK-OV-3; 20.6 µM (inactive) in the assay with MDA-N; 18.6 µM (inactive) with NCI-H23; 35.7 µM (inactive) with Malme-3M. Moreover, the GI50 was 17.7 µM (inactive) in the assay on 786-0; 27.6 µM (inactive) in the assay on TK-10; 17.5 µM (inactive) in the assay with SK-MEL-2; 20 µM (inactive) in the assay on OVCAR-5; 11.3 µM (inactive) in the assay with SK-MEL-5; 24.6 µM (inactive) with IGROV-1. Further, the GI50 in the assay with OVCAR-4 was 21.1 µM (inactive); in the assay on Hs-578T it was 15.8 µM (inactive); in the assay with OVCAR-3, 21.6 µM (inactive); in the assay with UACC-257 it was 20.9 µM (inactive); in the assay with COLO 205 it was 37.4 µM (inactive); in the assay on MCF7 it was 14.2 µM (inactive). In addition, the GI50 with MDA-MB-435 is 13.9 µM (inactive); in the assay on U-251, 24.9 µM (inactive).

As for `N#Cc1c(-c2ccc(Cl)cc2)c2c([nH]c1=O)-c1cc([N+](=O)[O-])ccc1CCC2`, the GI50 with ACHN is 25.3 µM (inactive); with HCT-15, 14.3 µM; with SK-OV-3, 28.7 µM (inactive); with MDA-N, 26.7 µM (inactive); with NCI-H23 it was 15.2 µM (inactive); in the assay with Malme-3M, 25.7 µM (inactive). The GI50 with 786-0 is 25.1 µM (inactive); in the assay on TK-10 it was 34.8 µM (inactive); with SK-MEL-2, 18 µM (inactive); with OVCAR-5 it was 17.2 µM (inactive); in the assay on SK-MEL-5, 16.6 µM (inactive); in the assay on IGROV-1, 21 µM (inactive). Moreover, the GI50 in the assay with OVCAR-4 was 19.6 µM (inactive); in the assay with Hs-578T, 25.2 µM (inactive); in the assay with OVCAR-3 it was 12.8 µM (inactive); with UACC-257 it was 21.1 µM (inactive); in the assay with COLO 205, 19.1 µM (inactive); in the assay on MCF7 it was 24.9 µM (inactive). Further, the GI50 in the assay with MDA-MB-435 is 29.9 µM (inactive); in the assay on U-251 it was 17.5 µM (inactive).

`O=C1CSC2(CCN(CCCN3c4ccccc4Sc4ccc(Cl)cc43)CC2)N1`: the GI50 with ACHN was 11.6 µM (inactive); in the assay with HCT-15, 6.78 µM; in the assay on SK-OV-3 it was 9.77 µM (inactive); with MDA-N, 11.5 µM (inactive); with NCI-H23 it was 9.46 µM (inactive); in the assay on Malme-3M, 12 µM (inactive). Further, the GI50 in the assay on 786-0 is 11.2 µM (inactive); with TK-10, 9.4 µM (inactive); in the assay with SK-MEL-2, 16.2 µM (inactive); in the assay with OVCAR-5, 11.9 µM (inactive); in the assay with SK-MEL-5, 11 µM (inactive); with IGROV-1, 7.78 µM (inactive). Further, the GI50 in the assay on OVCAR-4 is 10.5 µM (inactive); with Hs-578T, 10.4 µM (inactive); in the assay with OVCAR-3 it was 10.4 µM (inactive); in the assay on UACC-257 it was 9.35 µM (inactive); with COLO 205 it was 10 µM (inactive); in the assay on MCF7, 5.9 µM (inactive). Besides, the GI50 in the assay with MDA-MB-435 is 11.4 µM (inactive); in the assay with U-251, 8.51 µM (inactive).

As for `O=c1[nH]c2nc3ccccc3c(=O)n2/c1=C/c1ccc(O)cc1`, the GI50 in the assay on ACHN is 56.1 µM (inactive); in the assay with HCT-15 it was 30.9 µM; in the assay on SK-OV-3, > 100 µM (inactive); with MDA-N it was 32.3 µM (inactive); in the assay with NCI-H23 it was 49 µM (inactive); with Malme-3M it was 39.1 µM (inactive). For the same compound, the GI50 with 786-0 was 34.8 µM (inactive); in the assay on TK-10, 53 µM (inactive); in the assay on SK-MEL-2 it was 75.3 µM (inactive); in the assay on OVCAR-5, > 100 µM (inactive); with SK-MEL-5, 52.7 µM (inactive); in the assay with IGROV-1 it was 39.2 µM (inactive). Also, the GI50 with OVCAR-4 is > 100 µM (inactive); with Hs-578T, 18.6 µM (inactive); in the assay with OVCAR-3 it was 27 µM (inactive); in the assay with UACC-257, 56.8 µM (inactive); in the assay on COLO 205 it was 43.9 µM (inactive); in the assay on MCF7, 31 µM (inactive). The GI50 in the assay on MDA-MB-435 was 25.5 µM (inactive); in the assay on U-251, 26.2 µM (inactive).

For `CC(C)(/C=N/O)/[N+]([O-])=C/c1ccccc1`, the GI50 in the assay on ACHN is > 100 µM (inactive); in the assay on HCT-15, more than 100 µM; in the assay with SK-OV-3 it was > 100 µM (inactive); in the assay with MDA-N, > 100 µM (inactive); in the assay with NCI-H23, > 100 µM (inactive); in the assay on Malme-3M, > 100 µM (inactive). The GI50 with 786-0, in the assay on TK-10, with SK-MEL-2, in the assay with OVCAR-5, with SK-MEL-5 and in the assay with IGROV-1 was > 100 µM (inactive) in each case. Besides, the GI50 in the assay with OVCAR-4, in the assay with Hs-578T, with OVCAR-3, with UACC-257, in the assay with COLO 205 and in the assay on MCF7 was > 100 µM (inactive) each time. For the same compound, the GI50 in the assay on MDA-MB-435 and in the assay with U-251 was > 100 µM (inactive) throughout.

On to `COC(=O)c1sc2c(c1C(=O)OC)/C(=N/c1ccc(OC)cc1)S/C2=N\c1ccc(OC)cc1`, for which the GI50 is 1.24 µM (inactive) in the assay on ACHN; 0.452 µM with HCT-15; 1.69 µM (inactive) in the assay on SK-OV-3; 1.15 µM (inactive) with MDA-N; 1.57 µM (inactive) in the assay with NCI-H23; 1.74 µM (inactive) in the assay on Malme-3M. The GI50 was 0.426 µM (active) in the assay on 786-0; 1.62 µM (inactive) in the assay on TK-10; 0.624 µM (active) in the assay on SK-MEL-2; 1.73 µM (inactive) in the assay on OVCAR-5; 1.21 µM (inactive) in the assay on SK-MEL-5; 1.2 µM (inactive) in the assay on IGROV-1. The GI50 in the assay on OVCAR-4 is 1.35 µM (inactive); with Hs-578T, 1.5 µM (inactive); in the assay on OVCAR-3, 0.611 µM (active); with UACC-257, 1.32 µM (inactive); in the assay with COLO 205, 0.7 µM (active); in the assay with MCF7 it was 1.08 µM (active). In addition, the GI50 in the assay on MDA-MB-435 is 0.785 µM (active); in the assay on U-251, 0.348 µM (active).

As to `CC1=NN(c2nc(N)nc(/C(C#N)=C\c3cccc([N+](=O)[O-])c3)n2)C(C)(C)C1`, the GI50 in the assay on ACHN is 15.8 µM (inactive); in the assay with HCT-15 it was 13.2 µM; in the assay on SK-OV-3, 11.9 µM (inactive); with MDA-N, 13.2 µM (inactive); in the assay with NCI-H23, 10.1 µM (inactive); in the assay on Malme-3M, 16.9 µM (inactive). The GI50 was 6.58 µM (inactive) in the assay on 786-0; 15.7 µM (inactive) in the assay on TK-10; 16.4 µM (inactive) in the assay with SK-MEL-2; 24.4 µM (inactive) in the assay on OVCAR-5; 20.5 µM (inactive) in the assay with SK-MEL-5; 5.05 µM (inactive) in the assay with IGROV-1. Besides, the GI50 in the assay with OVCAR-4 is 10 µM (inactive); in the assay with Hs-578T it was 18.5 µM (inactive); in the assay on OVCAR-3 it was 6.76 µM (inactive); in the assay with UACC-257, 20.7 µM (inactive); in the assay with COLO 205 it was 14.9 µM (inactive); in the assay with MCF7 it was 6.82 µM (inactive). In addition, the GI50 in the assay with MDA-MB-435 is 11.2 µM (inactive); in the assay on U-251, 6.78 µM (inactive).

Take `Cc1ccc2c(n1)C(=O)c1ccccc1C2=O`: the GI50 in the assay with ACHN was 31.8 µM (inactive); in the assay with HCT-15, 25.8 µM; in the assay on SK-OV-3, 77.4 µM (inactive); in the assay on MDA-N, > 45.6 µM (inactive); in the assay with NCI-H23 it was 14.7 µM (inactive); in the assay on Malme-3M it was 9.35 µM (inactive). In addition, the GI50 in the assay with 786-0 was 27.6 µM (inactive); in the assay with TK-10, 71.3 µM (inactive); in the assay with SK-MEL-2 it was 28.8 µM (inactive); in the assay on OVCAR-5, 21.9 µM (inactive); with SK-MEL-5 it was 6.84 µM (inactive); with IGROV-1, 24.3 µM (inactive). Further, the GI50 in the assay on OVCAR-4 is 18.7 µM (inactive); with Hs-578T it was 72.3 µM (inactive); in the assay with OVCAR-3 it was 3.53 µM (inactive); in the assay on UACC-257 it was 19.1 µM (inactive); with COLO 205, 16.9 µM (inactive); in the assay on MCF7, 17.3 µM (inactive). Also, the GI50 with MDA-MB-435 is 18.2 µM (inactive); in the assay on U-251, 27.8 µM (inactive).

As to `CCc1ncnc2cc(OCC3CO3)c(OC)cc12` (stereo not given), the GI50 in the assay on ACHN is 1.37 µM (inactive); in the assay with HCT-15, 3.09 µM; in the assay on SK-OV-3, 22.9 µM (inactive); in the assay with MDA-N, 5.94 µM (inactive); in the assay on NCI-H23 it was 2.61 µM (inactive); with Malme-3M it was 12.3 µM (inactive). For the same compound, the GI50 in the assay on 786-0 is 0.902 µM (active); with TK-10, 10.8 µM (inactive); in the assay with SK-MEL-2, 3.32 µM (inactive); in the assay on OVCAR-5, 13 µM (inactive); in the assay on SK-MEL-5, 6.34 µM (inactive); in the assay on IGROV-1, 1.06 µM (active). The GI50 was 6.38 µM (inactive) in the assay with OVCAR-4; 5.77 µM (inactive) in the assay on Hs-578T; 11.1 µM (inactive) in the assay with OVCAR-3; 13.6 µM (inactive) in the assay with UACC-257; 8.17 µM (inactive) in the assay on COLO 205; 0.557 µM (active) with MCF7. Moreover, the GI50 with MDA-MB-435 was 5.12 µM (inactive); with U-251 it was 4.31 µM (inactive).

As for `CC1(C)OC2CN(C(=O)OCc3ccccc3)C(CO)C2O1` (stereo not given), the GI50 in the assay with ACHN is > 100 µM (inactive); in the assay with HCT-15, more than 100 µM; with SK-OV-3, > 100 µM (inactive); with MDA-N it was > 100 µM (inactive); in the assay on NCI-H23, > 100 µM (inactive); in the assay on Malme-3M, > 100 µM (inactive). The GI50 in the assay on 786-0, with TK-10, in the assay with SK-MEL-2, with OVCAR-5, with SK-MEL-5 and in the assay on IGROV-1 was > 100 µM (inactive) throughout. The GI50 in the assay on OVCAR-4, in the assay with Hs-578T, in the assay with OVCAR-3, in the assay on UACC-257, in the assay on COLO 205 and with MCF7 was > 100 µM (inactive) each time. Also, the GI50 with MDA-MB-435 and in the assay on U-251 was > 100 µM (inactive) each time.

The record behind these values is ChEMBL document CHEMBL1201862, “PubChem BioAssay data set” (2004).
